Assay [1] relates to human polymorphonuclear granulocytes (PMN; neutrophils). In kind it is cell-based. The conditions noted are these: mix at 3 μM, 1 μM, 0.3 μM; MPR peptide 10 μM co-applied, n = 3.
The next assay concerns neutrophils. In kind it is cell-based, human.
Assay [2] has as its system MMP-9 release of isolated PMNs. In kind it is cell-based, human. The conditions noted are these: activator mix 3 μM with MPR peptide, n = 5.
Assay [3] concerns the target T1, FPR2 (Homo sapiens, UniProt P25090).
T1 construct: expressed in transfected cells; host or cells: HEK293T
T1 sequence (P25090 1-351): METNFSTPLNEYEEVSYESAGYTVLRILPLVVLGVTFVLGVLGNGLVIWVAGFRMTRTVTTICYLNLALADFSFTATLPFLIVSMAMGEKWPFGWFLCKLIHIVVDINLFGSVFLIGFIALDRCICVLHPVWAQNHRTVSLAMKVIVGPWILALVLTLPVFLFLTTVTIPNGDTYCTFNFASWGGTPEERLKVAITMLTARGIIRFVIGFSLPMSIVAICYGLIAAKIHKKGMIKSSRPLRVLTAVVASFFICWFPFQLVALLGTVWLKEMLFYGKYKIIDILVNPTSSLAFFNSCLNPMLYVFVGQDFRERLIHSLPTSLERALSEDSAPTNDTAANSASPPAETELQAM
Briefly: cell-based. The format is binding.

Assay [4] addresses T2, FPR1 (Homo sapiens, UniProt P21462).
T2 construct: expressed in transfected cells; host or cells: HEK293T
T2 sequence (P21462 1-350): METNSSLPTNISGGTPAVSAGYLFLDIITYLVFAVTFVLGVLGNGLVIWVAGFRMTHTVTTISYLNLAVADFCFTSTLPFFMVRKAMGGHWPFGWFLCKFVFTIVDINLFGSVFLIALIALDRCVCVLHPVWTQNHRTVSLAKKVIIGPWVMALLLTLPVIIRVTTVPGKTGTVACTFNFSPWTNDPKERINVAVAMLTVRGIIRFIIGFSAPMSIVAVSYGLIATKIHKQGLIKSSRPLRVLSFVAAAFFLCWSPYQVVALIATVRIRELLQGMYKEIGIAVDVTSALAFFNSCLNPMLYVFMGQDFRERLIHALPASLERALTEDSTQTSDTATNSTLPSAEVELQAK
Briefly: biochemical. In kind it is binding. The conditions noted are these: read-out: IC50 in the BRET assay. (In general: In BRET a luciferase serves as donor, and the signal depends on an acceptor being close.)

Assay [5] has as its target T2, FPR1. Briefly: cell-based. In kind it is binding.
Assay [6] addresses T3, FPR3 (Homo sapiens, UniProt P25089).
T3 construct: expressed in transfected cells; host or cells: HEK293T
T3 sequence (P25089 1-353): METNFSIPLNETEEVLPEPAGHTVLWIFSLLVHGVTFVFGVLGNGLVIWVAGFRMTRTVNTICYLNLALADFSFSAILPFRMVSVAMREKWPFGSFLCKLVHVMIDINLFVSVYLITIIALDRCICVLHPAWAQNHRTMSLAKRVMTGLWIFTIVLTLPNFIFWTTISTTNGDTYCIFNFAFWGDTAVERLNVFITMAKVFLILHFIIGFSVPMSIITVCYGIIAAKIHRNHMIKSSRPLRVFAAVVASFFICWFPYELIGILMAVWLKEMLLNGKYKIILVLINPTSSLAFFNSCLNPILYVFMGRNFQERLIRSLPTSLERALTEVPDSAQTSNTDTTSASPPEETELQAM
In words: cell-based. The format is binding.

In the next assay the test system is human FPR2. In kind it is cell-based. The conditions noted are these: MPR peptides 30 μM, n = 3.
The test system of a further assay is human FPR3. The format is cell-based. The conditions noted are these: MPR peptides 30 μM, n = 3.
The subject of assay [7] is neutrophil-like differentiated HL-60 cells (dHL-60). The format is cell-based, human. The conditions noted are these: CV peptides 10 μM, n = 3–5.
Assay [8] concerns ERK1/2 phosphorylation via FPR1. In words: ERK1/2 phosphorylation assay in FPR1-transfected HEK293T cells. In kind it is cell-based, human. The conditions noted are these: MPR peptide 10 μM, 15 min. As for the experimental part: 300.000 cells were seeded in each well of an uncoated 12-well plate. After 30 min settling time on ice, cells were treated with the respective stimulants and incubated at 37°C, 5% CO2 for 15 min. Cells were subsequently washed with 500 μL PBS and then lysed with 250 μL protein extraction buffer (50 mM Tris-HCl pH 8.0, 5 mM EDTA, 150 mM NaCl, 0.5% [v/v] Triton-X, 5 mM DTT, Roche complete protease inhibitor) for 5 min on ice. Lysates were then placed into protein low bind tubes (Eppendorf) and treated for 20 min in an ultrasonic bath. Samples were centrifuged at 4°C, 12.000 rpm for 20 min to remove debris. Supernatants were collected and stored at −20°C until further use. Protein concentrations were determined using ROTINanoquant in a F[…] multimode reader. Samples were mixed with LDS sample buffer and NuPAGE reduction agent and subsequently heated at 70°C for 10 min 20 μg of each sample were loaded onto a 10% Bis-Tris gel. SDS-PAGE was performed at […] for 40 min. Proteins were blotted onto nitrocellulose membranes using a Wet Tank blotting system at 350 mA for 60 min. Transfer was controlled by Ponceau S staining. Membranes were then blocked with 3% BSA and 0.1% Tween 20 in PBS (PBST) for 60 min. […] Detection of luminescence signals was performed with ECL Prime Kit in a LumiImager. […] Signals of actin staining were measured as described above. […]

Assay [9] concerns FPR2. The conditions noted are these: cited from earlier work. The source says:
(§1) Besides viral peptides that interact with FPR1 and FPR2, we identified a large novel group of FPR3 specific viral activators - a receptor for which very few biological relevant activators have been described yet,[53]^,[72] leaving much room for speculations about its major biological function.[1]^,[2] In contrast to FPR1 and FPR2, for which a large panel of receptor subtype-selective ligands have been described, only two biological relevant agonists with a known preference for FPR3 were identified. One is the mitochondrial-derived neuroprotective peptide Humanin[51]^,[52]^,[73] that binds to F ...

Assay [10] deals with FPR3. The conditions noted are these: cited from earlier work.
Source text: as §1

pIC50, pKd: −log10 of the molar value. “Also recorded” adds a separate entry of the source. Peptide text beside a SMILES is read from it.

What is called pKd is the Kd on a negative log10 scale, so that one unit is a factor of ten. A higher pKd goes with a small Kd. As a reminder, the pIC50 is the IC50 on a negative log10 scale, so that one unit is a factor of ten.

Regarding `CC[C@H](C)[C@H](NC(=O)[C@H](Cc1ccc(O)cc1)NC(=O)[C@@H](NC(=O)[C@@H](N)CCC(=O)O)[C@@H](C)O)C(=O)N[C@@H](CCCCN)C(=O)N[C@@H](Cc1c[nH]c2ccccc12)C(=O)N1CCC[C@H]1C(=O)N[C@@H](Cc1c[nH]c2ccccc12)C(=O)N[C@@H](Cc1c[nH]c2ccccc12)C(=O)N[C@H](C(=O)N[C@@H](Cc1c[nH]c2ccccc12)C(=O)N[C@@H](CC(C)C)C(=O)O)C(C)C` [CV1], in [1], the “effect on activator-mix-induced calcium flux in neutrophils” value is “calcium flux suppression”. In the assay on neutrophils (MPR peptide 10 μM co-applied, n = 5), the “inhibition of the migratory response to the activator peptide mix” value is recorded as “near complete inhibition”. Also, in [2], the “effect on activator-mix-triggered MMP-9 release” value is “attenuated”.
In the case of `CC[C@H](C)[C@H](NC(=O)[C@H](Cc1ccc(O)cc1)NC(=O)[C@H](Cc1c[nH]c2ccccc12)NC(=O)[C@@H]1CCCN1C(=O)[C@H](Cc1c[nH]c2ccccc12)NC(=O)[C@H](CCCCN)NC(=O)[C@@H](NC(=O)[C@H](Cc1ccc(O)cc1)NC(=O)[C@H](CCC(N)=O)NC(=O)[C@@H](N)CCC(=O)O)[C@@H](C)CC)C(=O)N[C@@H](Cc1c[nH]c2ccccc12)C(=O)N[C@@H](CC(C)C)C(=O)O` [CV7], the pKd was 6.31 at FPR2 [3], 7.85 at FPR1 [5] and 6.46 on FPR3 [6]. In addition, on FPR1 [4], the pIC50 is 5.29.
For the molecule `CSCC[C@H](N)C(=O)N[C@@H](Cc1ccc(O)cc1)C(=O)N[C@H](C(=O)N[C@@H](CCCCN)C(=O)N[C@@H](Cc1c[nH]c2ccccc12)C(=O)N1CCC[C@H]1C(=O)N[C@@H](Cc1c[nH]c2ccccc12)C(=O)N[C@@H](Cc1ccc(O)cc1)C(=O)N[C@H](C(=O)N[C@@H](Cc1c[nH]c2ccccc12)C(=O)N[C@@H](CC(C)C)C(=O)O)C(C)C)C(C)C` [CV2*] (H-MYVKWPWYVWL-OH; N-terminus and C-terminus assumed), the “calcium levels in FPR2 transfected cells” value with human FPR2 is recorded as “strongest”. Besides, the “calcium response of FPR3-transfected cells” value in the assay on human FPR3 is listed as “responded; also recorded: strongest; also recorded: FPR3 activation”. Moreover, in assay [7], the “calcium signal in dHL-60 cells” value is listed as “positive calcium flux”. In addition, the neutrophil migration entry with neutrophils (MPR peptide 10 μM, 90 min, n = 3-5) is listed as “triggers”. Moreover, the “ERK signaling via FPR1” value in assay [8] is “triggers”. The “binding affinity for FPR1, FPR2, and FPR3, fold lower than the other MPR peptides” value on FPR1 [5] was “approximately 10 fold”.
Regarding “F2L: acetylated 21mer N-terminal cleavage product of heme-binding-protein-1”, the “concentrations that activate FPR2” value in the assay with FPR2 [9] was “low micromolar”. Moreover, the “concentrations that activate FPR3” value in the assay on FPR3 [10] is reported as “low nanomolar”.
